For one assay, the system named is H1299. Put plainly: Caspase activation assay in H1299 cells. The settings on record: Homo sapiens, NCI-H1299, 24 h incubation, read-out: Caspase activation potency EC50 H1299. The format is cell-based. The procedure: (§1) Human breast cancer cell lines T-47D and ZR-75-1, human colon cancer cell line DLD-1 and human non-small cell lung cancer cell line H1299 were grown according to media component mixtures designated by American Type Culture Collection+10% FCS (Invitrogen Corporation), in a 5% CO2−95% humidity incubator at 37° C. T-47D and ZR-75-1 cells were maintained at a cell density between 30 and 80% confluency at a cell density of 0.1 to 0.6×10^6 cells/mL. Cells were harvested at 600×g and resuspended at 0.65×10^6 cells/mL into appropriate media+10% FCS. An aliquot of […] of cells was added to a well of a 96-well microtiter plate containing 5 μl of a 10% DMSO in RPMI-1640 media solution containing about 0.16 to 10 μM of 2,7,8-triamino-4-(3-bromo-4,5-dimethoxy-phenyl)-3-cyano-4H-chromene (1) or other test compounds (0.016 to 1 μM final). An aliquot of 45 μl of cells was added to a well of a 96-well microtiter plate containing 5 μl of a 10% DMSO in RPMI-1640 media solution without test compound as the control sample. The samples were mixed by agitation and then incubated at 37° C. for 24 h in a 5% CO2−95% humidity incubator. After incubation, the samples were removed from the incubator and 50 μl of a solution containing 20 μM of N-(Ac-DEVD)-N′-ethoxycarbonyl-R110 (SEQ ID No:1) fluorogenic substrate (Cytovia, Inc.; U.S. Pat. No. 6,335,429), 20% sucrose (Sigma), 20 mM DTT (Sigma), 200 mM NaCl (Sigma), 40 mM Na PIPES buffer pH 7.2 (Sigma), and 500 μg/ml lysolecithin (Calbiochem) was added. The samples were mixed by agitation and incubated at room temperature. Using a fluorescent plate reader (Model 1420 Wallac Instruments), an initial reading (T=0) was made about 1-2 min after addition of the substrate solution, employing excitation at 485 nm and emission at 530 nm, to determine the background fluorescence of the control sample. After the 3 h incubation, the samples were read for fluorescence as above (T=3 h).
(§2) The Relative Fluorescence Unit values (RFU) were used to calculate the sample readings as follows: RFU(T=3h)−Control RFU(T=0)=Net RFU(T=3h)
(§3) The activity of caspase cascade activation was determined by the ratio of the net RFU value for 2,7,8-triamino-4-(3-bromo-4,5-dimethoxy-phenyl)-3-cyano-4H-chromene or other test compound to that of control samples. The EC50 (nM) was determined by a sigmoidal dose-response calculation (Prism 2.0, GraphPad Software Inc.).

In another assay the test system is T-47D. The experiment in a line: Caspase activation assay in T-47D cells. The format is cell-based. The settings on record: Homo sapiens; T47D cells, 24 h incubation; read-out: Caspase activation potency EC50 T47D. The procedure:
as §1, §2, §3

For a further assay, the system named is solid tumor cells. Put plainly: Caspase cascade activation and induction of apoptosis, overall statement. In kind it is cell-based, human. The settings on record: summary of Table I. The procedure:
as §1, with “After incubation, the samples were removed from the incubator and 50 μl of a solution containing 20 μM of N-(Ac-DEVD)-N′-ethoxycarbonyl-R110 (SEQ ID No:1) fluorogenic substrate (Cytovia, Inc.; U.S. Pat. No. 6,335,429), 20% sucrose (Sigma), 20 mM DTT (Sigma), 200 mM NaCl (Sigma), 40 mM Na PIPES buffer pH 7.2 (Sigma), and 500 μg/ml lysolecithin (Calbiochem) was added. The samples were mixed by agitation and incubated at room temperature.” left out
as §3

For assay [1], the system named is MX1 human breast cancer tumors. Put plainly: In vivo antitumor activity in MX-1 model, combination with cisplatin and doxorubicin. Details: species or system mice. The procedure:
MX1 human breast cancer tumors were obtained from the NCI-FCRDC and maintained as tumors in nude mice. Tumor bits were implanted with a trocar into the right mammary area of female nu/nu mice and allowed to grow to an average size of 200-250 mg, about 12 days after being implanted. Animals were randomized and assigned to study groups of 8-10 animals/group. Body weight were determined and tumor size were measured by calipers and converted to volume by the standard formula of Vol=L×W^2/2. Compound 1R was formulated in 7% PEG400/9% Tween80/84% D5W and administered IV via the tail vein at the indicated days and doses. Day 1 of the study was the first day of treatment. Survival time was the number of days for the tumor to reach 1000 mg or death, whichever occurred earliest. Median survival is the median for the group.
Mice implanted with MX1 human breast cancer tumors were treated with compound 1R as described in EXAMPLE 11. Cisplatin was administered IP whereas doxorubicin was administered IV at the indicated doses.

Another assay relates to DLD-1. Put plainly: Caspase activation assay in DLD-1 cells. In kind it is cell-based. To be noted: Homo sapiens, 24 h incubation, read-out: Caspase activation potency EC50 DLD-1. On the procedure: as §1, with “After incubation, the samples were removed from the incubator and 50 μl of a solution containing 20 μM of N-(Ac-DEVD)-N′-ethoxycarbonyl-R110 (SEQ ID No:1) fluorogenic substrate (Cytovia, Inc.; U.S. Pat. No. 6,335,429), 20% sucrose (Sigma), 20 mM DTT (Sigma), 200 mM NaCl (Sigma), 40 mM Na PIPES buffer pH 7.2 (Sigma), and 500 μg/ml lysolecithin (Calbiochem) was added. The samples were mixed by agitation and incubated at room temperature.” left out
as §2, §3

In a further assay the test system is ZR-75-1. Put plainly: Caspase activation assay in ZR-75-1 cells. In kind it is cell-based. To be noted: Homo sapiens, ZR751 cells, 24 h incubation, read-out: Caspase activation potency EC50 ZR751. On the procedure: as §1, with “After incubation, the samples were removed from the incubator and 50 μl of a solution containing 20 μM of N-(Ac-DEVD)-N′-ethoxycarbonyl-R110 (SEQ ID No:1) fluorogenic substrate (Cytovia, Inc.; U.S. Pat. No. 6,335,429), 20% sucrose (Sigma), 20 mM DTT (Sigma), 200 mM NaCl (Sigma), 40 mM Na PIPES buffer pH 7.2 (Sigma), and 500 μg/ml lysolecithin (Calbiochem) was added. The samples were mixed by agitation and incubated at room temperature.” left out
as §2, §3

The mark [2] stands for this setting: doxorubicin 2 mg/kg, day 2, 9, IV.
Setting [3] is: cisplatin 2 mg/kg, day 2, 9, IP.

In the case of `COc1cc(C2C(C#N)=C(N)Oc3c2ccc(NC(=O)C(N)COC(C)=O)c3N)cc(Br)c1OC` (stereo not shown) [F], the figures for the EC50 in the assay on H1299 and in the assay on T-47D were 5670 nM and 4120 nM, respectively.

`COc1cc([C@H]2C(C#N)=C(N)Oc3c2ccc(NC(=O)[C@H](C)N)c3N)cc(Br)c1OC` [Compound 4, (2S)-2-Amino-N—((R)-2,8-diamino-4-(3-bromo-4,5-dimethoxyphenyl)-3-cyano-4H-chromen-7-yl)propanamide]: in the assay with solid tumor cells, the “Caspase cascade activator and inducer of apoptosis (in words)” value is “potent caspase cascade activator and inducer of apoptosis”. Also, the EC50 in the assay on T-47D turned out to be 52 nM.

With `COc1cc(C2C(C#N)=C(N)Oc3c2ccc(NC(=O)CCCN)c3N)cc(Br)c1OC` (stereo not shown) [B], the EC50 with H1299 stood at 5780 nM; in the assay with T-47D, 5500 nM.

Take `COc1cc([C@H]2C(C#N)=C(N)Oc3c2ccc(NC(=O)[C@H](C)NC(=O)OCC2c4ccccc4-c4ccccc42)c3N)cc(Br)c1OC` [Compound 3, (9H-fluoren-9-yl)methyl(S)-1-((R)-2,8-diamino-3-cyano-4-(3-bromo-4,5-dimethoxyphenyl)-4H-chromen-7-ylcarbamoyl)ethylcarbamate]: the EC50 with T-47D came to 2880 nM.

`COc1cc([C@H]2C(C#N)=C(N)Oc3c2ccc(NC(=O)CNC(=O)OCC2c4ccccc4-c4ccccc42)c3N)cc(Br)c1OC` [Compound 5, (9H-fluoren-9-yl)methyl((R)-2,8-diamino-4-(3-bromo-4,5-dimethoxyphenyl)-3-cyano-4H-chromen-7-ylcarbamoyl)methylcarbamate]: the EC50 with T-47D is 2440 nM.

On to `COc1cc(C2C(C#N)=C(N)Oc3c2ccc(NC(=O)CN)c3N)cc(Br)c1OC` (stereo not shown) [C], for which the EC50 with H1299 came out at 273 nM; in the assay with T-47D, 160 nM.

As for `COc1cccc2c1C(=O)c1c(O)c3c(c(O)c1C2=O)C[C@@](O)(C(=O)CO)C[C@@H]3O[C@H]1C[C@H](N)[C@H](O)[C@H](C)O1` [Doxorubicin, reference compound], in assay [1] (setting [2]), the Median survival was found to be 11 days and the “Number of tumor free mice at day 91” value is given as 0 of 9.

Consider `COc1cc(C2C(C#N)=C(N)Oc3c2ccc(N)c3N)cc(Br)c1OC` (racemic) [Compound 1, 2,7,8-Triamino-4-(3-bromo-4,5-dimethoxy-phenyl)-3-cyano-4H-chromene], for which the EC50 in the assay on H1299 was found to be 120 nM; in the assay on T-47D, 42 nM; with DLD-1 it was 78 nM; in the assay on ZR-75-1 it was 35 nM.

With `COc1cc([C@H]2C(C#N)=C(N)Oc3c2ccc(NC(=O)CN)c3N)cc(Br)c1OC` [Compound 6, 2-Amino-N—((R)-2,8-diamino-4-(3-bromo-4,5-dimethoxyphenyl)-3-cyano-4H-chromen-7-yl)acetamide], the EC50 with T-47D amounted to 60 nM.

As to `COc1cc(C2C(C#N)=C(N)Oc3c2ccc(NC(=O)C2CCCN2)c3N)cc(Br)c1OC` (stereo not shown) [Compound E], the 50% effective concentration (EC50) in the assay with H1299 worked out at 5330 nM; with T-47D, 3900 nM.

As to `COc1cc(C2C(C#N)=C(N)Oc3c2ccc(NC(=O)CN(C)C)c3N)cc(Br)c1OC` (stereo not shown) [A], the values for the EC50 with H1299 and with T-47D were 3340 nM and 2540 nM, respectively.

Take `COc1cc(C2C(C#N)=C(N)Oc3c2ccc(NC(=O)C[N+](C)(C)C)c3N)cc(Br)c1OC` (stereo not shown) [D]: the EC50 in the assay with H1299 and with T-47D was above 10000 nM each time.

On to `N.N.[Cl][Pt][Cl]` [Cisplatin, reference compound], for which, in assay [1] (setting [3]), the Median survival came to 27 days and the “Number of tumor free mice at day 91” value is 1 of 7. Further, in assay [1] (cisplatin 2 mg/kg, day 2, IP), the Median survival is 11 days and the “Number of tumor free mice at day 91” value is listed as 0 of 9.

Take `COc1cc([C@@H]2C(C#N)=C(N)Oc3c2ccc(N)c3N)cc(Br)c1OC` [Compound 1S, S(+)-2,7,8-triamino-4-(3-bromo-4,5-dimethoxy-phenyl)-3-cyano-4H-chromene]: the “Caspase cascade activator and inducer of apoptosis (in words)” value in the assay on solid tumor cells is “inactive isomer”. Moreover, the EC50 with H1299 is 3210 nM; with T-47D it was 2490 nM; in the assay on DLD-1 it was 4570 nM; with ZR-75-1, 2010 nM.

As to `COc1cc(C2C(C#N)=C(N)Oc3c2ccc(NC(=O)[C@H](N)CCCCN)c3N)cc(Br)c1OC` (stereo partly shown) [G], the EC50 was determined as 3750 nM with H1299 and 1420 nM in the assay on T-47D.

The term EC50 denotes the concentration giving half of the maximal effect.

Source of the values: US7968595B2, “Substituted 4-aryl-chromene as activator of caspases and inducer of apoptosis and as antivascular agent and the use thereof” (Cytovia, Inc., priority 2006, dated 2011).
